Assay: recombinant UMI read abundance after kanamycin selection (control-corrected) (log10(CPM+1)); higher = more efficient recombination; extreme values may be limits of the assay; sequences stand for … in AGTGCAGAGAAAATCGGCCAGTTTTCTCTGCCTGCAGTCCGCATGCCGTGGGACCCCTTGGGTTCTAACCTGTTGCCTAGATTTATGCAGCGGACTGCCTTTCTCCCAAAGTGATAAACCGG…AGGTTGGTTTCACT; site = the 11-nt donor
Summary of the method: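 For the IS621 bridge recombinase, a pooled Escherichia coli screen tested donor and donor-binding-loop pairs. Cells received the pair library together with a target plasmid encoding a fixed target and T7-inducible recombinase, then went onto IPTG (0.07 mM) plus kanamycin or unselected plates in duplicate. After PCR across the donor–target junction and sequencing, recombinant UMI counts were normalized to CPM, averaged, and scaled by control-derived factors. Each value is given as log10(CPM+1).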
With “ATTTCTACATGGACCGGTTTTCCCGGTAATCCGTATTTGTT (site ATTTCTACTAA)” the “recombinant UMI read abundance (log10)” value was 0.0251.
For “ATTTGATCATGGACCGGTTTTCCCGGTAATCCGTATTTGTG (site ATTTGATCTCA)”, the “recombinant UMI read abundance (log10)” value was 1.71.
In the case of “CAAACAGCATGGACCGGTTTTCCCGGTAATCCGTATTTGCT (site CAAACAGCTAG)”, the “recombinant UMI read abundance (log10)” value is reported as 2.26.
For “CAAACAGCATGGACCGGTTTTCCCGGTAATCCGTATTTGCT (site CAACCAGCTAG)”, the “recombinant UMI read abundance (log10)” value was 0.00434.
For “CAAACAGCATGGACCGGTTTTCCCGGTAATCCGTATTTGCT (site CAAGCAGCTAG)”, the “recombinant UMI read abundance (log10)” value was 0.00437.
For “CAAACAGCATGGACCGGTTTTCCCGGTAATCCGTATTTGCT (site CAATCAGCTAG)”, the “recombinant UMI read abundance (log10)” value was 0.
With “CAAAGAACATGGACCGGTTTTCCCGGTAATCCGTATTTGCG (site CAAAGAACTCG)” the “recombinant UMI read abundance (log10)” value was 2.53.
With “CAAAGGGCATGGACCGGTTTTCCCGGTAATCCGTATTTGAC (site CAAAGGGCTGT)” the “recombinant UMI read abundance (log10)” value was 2.62.
In the case of “CAAATTTCATGGACCGGTTTTCCCGGTAATCCGTATTTGTG (site CAAATTTCTCA)”, the “recombinant UMI read abundance (log10)” value is reported as 0.763.
In the case of “CAACAGACATGGACCGGTTTTCCCGGTAATCCGTATTTGAA (site CAACAGACTTT)”, the “recombinant UMI read abundance (log10)” value is reported as 1.88.
With “CAACCAGCATGGACCGGTTTTCCCGGTAATCCGTATTTGCT (site CAAACAGCTAG)” the “recombinant UMI read abundance (log10)” value was 0.
With “CAACCAGCATGGACCGGTTTTCCCGGTAATCCGTATTTGCT (site CAACCAGCTAG)” the “recombinant UMI read abundance (log10)” value was 0.
With “CAACCAGCATGGACCGGTTTTCCCGGTAATCCGTATTTGCT (site CAAGCAGCTAG)” the “recombinant UMI read abundance (log10)” value was 0.
In the case of “CAACCAGCATGGACCGGTTTTCCCGGTAATCCGTATTTGCT (site CAATCAGCTAG)”, the “recombinant UMI read abundance (log10)” value is reported as 0.
For “CAACCCACATGGACCGGTTTTCCCGGTAATCCGTATTTGAT (site CAACCCACTAT)”, the “recombinant UMI read abundance (log10)” value was 0.946.
For “CAACCTGCATGGACCGGTTTTCCCGGTAATCCGTATTTGGC (site CAACCTGCTGC)”, the “recombinant UMI read abundance (log10)” value was 0.
In the case of “CAACTAACATGGACCGGTTTTCCCGGTAATCCGTATTTGGA (site CAACTAACTTC)”, the “recombinant UMI read abundance (log10)” value is reported as 1.93.
For “CAACTAACATGGACCGGTTTTCCCGGTAATCCGTATTTGGA (site CCACTAACTTC)”, the “recombinant UMI read abundance (log10)” value was 0.226.
With “CAACTAACATGGACCGGTTTTCCCGGTAATCCGTATTTGGA (site CGACTAACTTC)” the “recombinant UMI read abundance (log10)” value was 0.548.
In the case of “CAACTAACATGGACCGGTTTTCCCGGTAATCCGTATTTGGA (site CTACTAACTTC)”, the “recombinant UMI read abundance (log10)” value is reported as 0.341.
In the case of “CAACTAGCATGGACCGGTTTTCCCGGTAATCCGTATTTGCA (site CAACTAGCTTG)”, the “recombinant UMI read abundance (log10)” value is reported as 1.13.
In the case of “CAACTATCATGGACCGGTTTTCCCGGTAATCCGTATTTGAT (site CAACTATCTAT)”, the “recombinant UMI read abundance (log10)” value is reported as 0.885.
For “CAAGAATCATGGACCGGTTTTCCCGGTAATCCGTATTTGAC (site CAAGAATCTGT)”, the “recombinant UMI read abundance (log10)” value was 2.88.
In the case of “CAAGAATCATGGACCGGTTTTCCCGGTAATCCGTATTTGAC (site CTAGTATCTGT)”, the “recombinant UMI read abundance (log10)” value is reported as 0.416.
In the case of “CAAGACACATGGACCGGTTTTCCCGGTAATCCGTATTTGGG (site CAAGACACTCC)”, the “recombinant UMI read abundance (log10)” value is reported as 1.28.
With “CAAGACACATGGACCGGTTTTCCCGGTAATCCGTATTTGGG (site CAAGCCACTCC)” the “recombinant UMI read abundance (log10)” value was 0.00576.
With “CAAGACACATGGACCGGTTTTCCCGGTAATCCGTATTTGGG (site CAAGGCACTCC)” the “recombinant UMI read abundance (log10)” value was 0.0364.
With “CAAGACACATGGACCGGTTTTCCCGGTAATCCGTATTTGGG (site CAAGTCACTCC)” the “recombinant UMI read abundance (log10)” value was 0.274.
For “CAAGATACATGGACCGGTTTTCCCGGTAATCCGTATTTGGT (site CAAGATACTAC)”, the “recombinant UMI read abundance (log10)” value was 1.97.
For “CAAGCACCATGGACCGGTTTTCCCGGTAATCCGTATTTGTG (site CAAGCACCTCA)”, the “recombinant UMI read abundance (log10)” value was 0.018.
With “CAAGCACCATGGACCGGTTTTCCCGGTAATCCGTATTTGTG (site CAAGCCCCTCA)” the “recombinant UMI read abundance (log10)” value was 0.00553.
In the case of “CAAGCACCATGGACCGGTTTTCCCGGTAATCCGTATTTGTG (site CAAGCGCCTCA)”, the “recombinant UMI read abundance (log10)” value is reported as 0.00843.
In the case of “CAAGCACCATGGACCGGTTTTCCCGGTAATCCGTATTTGTG (site CAAGCTCCTCA)”, the “recombinant UMI read abundance (log10)” value is reported as 0.
For “CAAGCAGCATGGACCGGTTTTCCCGGTAATCCGTATTTGCA (site CAAGCAGCTAG)”, the “recombinant UMI read abundance (log10)” value was 1.22.

Reference: the supplement of paper PMC11208160
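Note: IS621 bridge recombinase in Escherichia coli cells against a fixed T5 target plasmid.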
